In patent US6417195B1, “Isoquinoline derivatives and isoquinoline combinatorial libraries” (Lion Bioscience AG, priority 1999, dated 2002):

System: Streptococcus pyogenes
Assay: Anti-microbial screen
Assay type: cell-based
Details: growth at 4 hrs, OD 570 nm, Todd Hewitt Broth
Procedure: Streptococcus pyogenes (ATCC# 97-03 14289) were grown in Todd Hewitt Broth (THB) (Difco Laboratories #0492-17-6) overnight until they reached an optical density of (OD═0.636@ 570 nm) by reading 0.1 ml in a 96 well microtiter plate in a Molecular Devices Thermomax. This preparation was kept frozen as stocks in 30% v/v glycerol in 1.5 ml aliquots at −70° C. until use. Prior to experiments 1.5 ml aliquots were thawed and diluted into 50 ml THB. 200 ul of this dilution was added to 92 wells of microtiter plate. To three wells THB (200 ul) was added to serve as a blank and a sterility control. Test compounds in DMSO and appropriate concentrations of DMSO were added to Growth/Solvent Controls at 0 time. Plates were read at 0 time at 570 nm in the Molecular Devices plate reader to obtain compounds correction factors for insoluble or colored compounds. Plates were read again at 4 hrs.
Percent inhibition was calculated with the following formulae:
Color correct=(O.D. 0 hr−Blank 0 hr)−(Solvent Control 0 hr−Blank 0 hr)
% Inhibition=100−O.D. test compound 4 hr−Blank 4 hr−color correct
O.D. growth/solvent control 4 hr−Blank 4 hr

For NC(=O)CN(CCN1CCCCC1)C(=O)c1ccc(CN2C(=O)c3ccccc3C(C(=O)NCCN3CCCC3)C2c2ccccc2)cc1 (stereo not drawn) [Compound 2530-865], the “% Inhibition” value was 20%.
In the case of CCN1CCCC1CN(CC(N)=O)C(=O)CCN1C(=O)c2ccccc2C(C(=O)NCCCN2CCCCC2C)C1c1cccc([N+](=O)[O-])c1 (stereo not drawn) [Compound 2520-2341], the “% Inhibition” value is reported as 104%.
For CCN1CCCC1CN(CC(N)=O)C(=O)CCN1C(=O)c2ccccc2C(C(=O)NCCCN2CCCCC2C)C1c1ccc(N(C)C)cc1 (stereo not drawn) [Compound 2520-7125], the “% Inhibition” value was 100%.
With CN(C)CCN(CC(N)=O)C(=O)c1ccc(CN2C(=O)c3ccccc3C(C(=O)NCc3cccnc3)C2c2ccccc2)cc1 (stereo not drawn) [Compound 2530-2] the “% Inhibition” value was 51%.
CC(C)(C)C1CCC(NC(=O)C2c3ccccc3C(=O)N(CC3CCC(C(=O)N(CCCn4ccnc4)CC(N)=O)CC3)C2c2ccccc2)CC1 (stereo not drawn) [Compound 2530-4818] was tested, and the “% Inhibition” value was 61%.
With CCCN(CC(N)=O)C(=O)C1CCC(CN2C(=O)c3ccccc3C(C(=O)NCc3cccnc3)C2c2cccc(C)n2)CC1 (stereo not drawn) [Compound 2530-1538] the “% Inhibition” value was 15%.
CCCN(CC(N)=O)C(=O)C1CCC(CN2C(=O)c3ccccc3C(C(=O)NCCN3CCCC3)C2c2cccc(C)n2)CC1 (stereo not drawn) [Compound 2530-1537] was tested, and the “% Inhibition” value was 4%.
With CN(C)CCN(CC(N)=O)C(=O)CCN1C(=O)c2ccccc2C(C(=O)NCCN2CCCC2)C1c1ccc(O)c(O)c1 (stereo not drawn) [Compound 2520-1] the “% Inhibition” value was 9%.
For CCCCOCCCNC(=O)C1c2ccccc2C(=O)N(CCC(=O)N(CC(N)=O)CC2CCCN2CC)C1c1ccc(SC)cc1 (stereo not drawn) [Compound 2520-7922], the “% Inhibition” value was 87%.
For CSc1ccc(C2C(C(=O)NCCN(C)C)c3ccccc3C(=O)N2Cc2ccc(C(=O)N(CCc3ccc(Cl)cc3Cl)CC(N)=O)cc2)cc1 (stereo not drawn) [Compound 2530-4402], the “% Inhibition” value was 96%.
With CSc1ccc2c3c1C(Br)CCN3C(=O)C1c3ccccc3C(=O)N(Cc3ccc(C(=O)N(CCc4ccc(Cl)cc4Cl)CC(N)=O)cc3)C21 (stereo not drawn) [Compound 2530-4401] the “% Inhibition” value was 45%.
With C=CCN(CC(N)=O)C(=O)c1ccc(CN2C(=O)c3ccccc3C3C(=O)N4CCOc5c(O)ccc(c54)C32)cc1 (stereo not drawn) [Compound 2530-6447] the “% Inhibition” value was 8%.
In the case of CN(C)CCN(CC(N)=O)C(=O)CCN1C(=O)c2ccccc2C(C(=O)NC2CCC(C(C)(C)C)CC2)C1c1ccc(O)c(O)c1 (stereo not drawn) [Compound 2520-2], the “% Inhibition” value is reported as 94%.
CCN(CCNC(=O)C1c2ccccc2C(=O)N(CCC(=O)N(CC(N)=O)Cc2ccccc2)C1c1ccc(N(C)C)cc1)c1cccc(C)c1 (stereo not drawn) [Compound 2520-3137] was tested, and the “% Inhibition” value was 66%.
CCOC(=O)CCNC(=O)C1c2ccccc2C(=O)N(CCC(=O)N(CC(N)=O)CC2CCCN2CC)C1c1ccc(N(C)C)cc1 (stereo not drawn) [Compound 2520-7126] was tested, and the “% Inhibition” value was 26%.
For CCN(CC)CCCC(C)NC(=O)C1c2ccccc2C(=O)N(Cc2ccc(C(=O)N(CC(N)=O)CC3CCCN3CC)cc2)C1c1ccc(O)cc1 (stereo not drawn) [Compound 2530-3185], the “% Inhibition” value was 4%.
With CN(C)CCN(CC(N)=O)C(=O)c1ccc(CN2C(=O)c3ccccc3C(C(=O)NCCN3CCCC3)C2c2ccccc2)cc1 (stereo not drawn) [Compound 2530-1] the “% Inhibition” value was 44%.
For NC(=O)CN(CCN1CCOCC1)C(=O)c1ccc(CN2C(=O)c3ccccc3C3C(=O)N4CCN(Cc5ccccc5)c5c(-c6ccccc6)ccc(c54)C32)cc1 (stereo not drawn) [Compound 2530-2501], the “% Inhibition” value was 109%.
With CCN1CCCC1CN(CC(N)=O)C(=O)CCN1C(=O)c2ccccc2C(C(=O)N2CCN(C)CC2)C1c1ccc(-c2ccccc2)cc1 (stereo not drawn) [Compound 2520-6333] the “% Inhibition” value was 78%.
For CCc1ccc(C2C(C(=O)NCCN(C)C)c3ccccc3C(=O)N2Cc2ccc(C(=O)N(CCOC)CC(N)=O)cc2)cc1 (stereo not drawn) [Compound 2530-4162], the “% Inhibition” value was 30%.
In the case of NC(=O)CN(CCN1CCCCC1)C(=O)c1ccc(CN2C(=O)c3ccccc3C(C(=O)NCc3cccnc3)C2c2ccccc2)cc1 (stereo not drawn) [Compound 2530-866], the “% Inhibition” value is reported as 11%.
CCN1CCCC1CN(CC(N)=O)C(=O)CCN1C(=O)c2ccccc2C(C(=O)N2CCN(Cc3ccccc3)CC2)C1c1ccc(-c2ccccc2)cc1 (stereo not drawn) [Compound 2520-6332] was tested, and the “% Inhibition” value was 98%.
CCCCOCCCNC(=O)C1c2ccccc2C(=O)N(CCC(=O)N(CC(N)=O)NC(=O)OC)C1c1cc(C(F)(F)F)cc(C(F)(F)F)c1 (stereo not drawn) [Compound 2520-5548] was tested, and the “% Inhibition” value was 43%.
C=CCNC(=O)C1c2ccccc2C(=O)N(CCC(=O)N(CCN(C)C)CC(N)=O)C1c1cccc(Oc2ccccc2)c1 (stereo not drawn) [Compound 2520-4746] was tested, and the “% Inhibition” value was 100%.
With C=CCN(CC(N)=O)C(=O)c1ccc(CN2C(=O)c3ccccc3C(C(=O)NCCCCCCCCCCCC)C2c2ccc(O)cc2)cc1 (stereo not drawn) [Compound 2530-6448] the “% Inhibition” value was 53%.
With CCCCOCCCNC(=O)C1c2ccccc2C(=O)N(CCC(=O)N(CC(N)=O)Cc2ccccc2)C1c1ccc(N(C)C)cc1 (stereo not drawn) [Compound 2520-3138] the “% Inhibition” value was 19%.
With CCN(CCNC(=O)C1c2ccccc2C(=O)N(CCC(=O)N(CC(N)=O)CC2CCCN2CC)C1c1ccc(SC)cc1)c1cccc(C)c1 (stereo not drawn) [Compound 2520-7921] the “% Inhibition” value was 100%.
With CCOC(=O)CC(C)NC(=O)C1c2ccccc2C(=O)N(CCC(=O)N(CCN(C)C)CC(N)=O)C1c1cccc(Oc2ccccc2)c1 (stereo not drawn) [Compound 2520-4745] the “% Inhibition” value was 99%.
In the case of CCN1CCCC1CN(CC(N)=O)C(=O)c1ccc(CN2C(=O)c3ccccc3C(C(=O)NC3CCC(C(C)(C)C)CC3)C2c2ccc(O)cc2)cc1 (stereo not drawn) [Compound 2530-3186], the “% Inhibition” value is reported as 101%.
In the case of CCCCN(CCCC)CCN(CC(N)=O)C(=O)CCN1C(=O)c2ccccc2C(C(=O)NCCN(CC)c2cccc(C)c2)C1c1ccc(O)c(O)c1 (stereo not drawn) [Compound 2520-721], the “% Inhibition” value is reported as 86%.
NC(=O)CN(CCCn1ccnc1)C(=O)C1CCC(CN2C(=O)c3ccccc3C3C(=O)N4CCC(N5CCCC5)c5cccc(c54)C32)CC1 (stereo not drawn) [Compound 2530-4819] was tested, and the “% Inhibition” value was 20%.
For CCN(CCNC(=O)C1c2ccccc2C(=O)N(CCC(=O)N(CC(N)=O)NC(=O)OC)C1c1cc(C(F)(F)F)cc(C(F)(F)F)c1)c1cccc(C)c1 (stereo not drawn) [Compound 2520-5545], the “% Inhibition” value was 86%.
For CCCCOCCCNC(=O)C1c2ccccc2C(=O)N(CCC(=O)N(CCN(CCCC)CCCC)CC(N)=O)C1c1ccc(O)c(O)c1 (stereo not drawn) [Compound 2520-722], the “% Inhibition” value was 58%.
